According to article PMC6748986, “Potent modulation of the CepR quorum sensing receptor and virulence in a Burkholderia cepacia complex member using non-native lactone ligands” (Scientific Reports, 2019):
Where “and” joins values, the source holds several entries; their conditions need not be identical. Equal entries are not always repeated.

Key:
[1] = molecular target: T1, CepR (Burkholderia cenocepacia, UniProt B4EMD0); test: CepR antagonism in E. coli β-galactosidase reporter (Ec-reporter), competition against C8-AHL; format: cell-based, B. cenocepacia; conditions: against 10 nM C8-AHL; for IC50 / Maximal Inhibition (%): Ec-reporter; for inhibition at 100 µM: read-out: Inh% (100-Act%)
T1 sequence (B4EMD0 1-239): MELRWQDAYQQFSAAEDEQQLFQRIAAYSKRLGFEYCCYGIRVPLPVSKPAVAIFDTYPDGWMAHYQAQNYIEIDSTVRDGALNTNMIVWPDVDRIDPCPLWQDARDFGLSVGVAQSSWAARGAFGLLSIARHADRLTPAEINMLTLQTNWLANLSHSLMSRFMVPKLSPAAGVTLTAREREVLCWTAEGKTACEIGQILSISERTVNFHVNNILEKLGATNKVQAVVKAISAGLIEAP
Method in brief: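 CepR antagonism was measured in E. coli JLD271 (∆sdiA) carrying pJN105-cepR, which expresses B. cenocepacia CepR from an arabinose-inducible pBAD promoter, and pSC11-cepI, which fuses lacZ to the cepI promoter. Induced cells were grown 4 h with compound and 10 nM C8-AHL. β-Galactosidase activity was then read by CPRG cleavage at 37 °C after Z Buffer permeabilization.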

[2] = molecular target: T1, CepR; test: CepR agonism in E. coli β-galactosidase reporter (Ec-reporter) JLD271 [pJN105-cepR + pSC11-cepI]; format: cell-based, B. cenocepacia; conditions: for Act% / activation at 100 µM: Table S2, Ec-reporter, screening conc. 100 μM; for EC50 / EC50 (nM): agonism dose-response; for Emax: read-out: Maximal Activation (%)
Method in brief: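 E. coli JLD271 (ΔsdiA) carrying arabinose-inducible CepR (27 mM L-arabinose) and cepI-lacZ fusion, grown 4 h with compound; β-galactosidase measured by CPRG cleavage at 37 °C (~30 min), normalized to OD600. Agonism compared with C8-AHL at 100 μM; screen at 100 μM or solubility limit, then dose-response; ≥3 trials.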

[3] = tested on: B. multivorans ATCC17616; test: C. elegans survival assay, B. multivorans infection; format: in vivo; conditions: C. elegans N2 infected with B. multivorans; for Effect on survival of Bm-infected worms (antagonists): 50 μM for antagonists; for Effect on survival of Bm-infected worms (agonists): 1 μM for agonists, relative to untreated worms
Text: We next assessed the effects of our lead CepR modulators on exacerbating or alleviating infections by a Bcc member using the nematode C. elegans as a model of pathogenicity. We infected N2 nematodes with B. multivorans ATCC17616 in the presence of compound, and assessed survival of worms over time (see Methods)[13],[35],[53]. None of the compounds tested caused measurable toxicity effects in uninfected worms under these conditions. […] Our results here, using chemical CepR modulators, appear to replicate these effects in B. multivorans nematode infections.
The C. elegans survival assay was based on previously reported procedures[35],[65]. To synchronize worms, eggs were harvested by hypochlorite bleaching (5 min in 1 mL 5% bleach, 0.25 mL 5 M NaOH, 3.75 mL H2O), and grown on Nematode Growth Media (NGM) + E. coli OP50 at 21 °C. B. multivorans was grown overnight with the compound of interest in LB medium (1 μM for agonists, 50 μM for antagonists), and then the overnight culture was centrifuged, resuspended in the assay medium, standardized to OD600 = 0.8, and 25 μL of this culture was used per condition. CFUs of these standardized cultures were used to confirm that bacteria numbers were relatively the same. For the survival assay, synchronized worms (L4 stage) were suspended in liquid NGM media containing bacteria and compound in 96-well plates (100 μL total volume). […] Plates were incubated at 25 °C, after which they were analyzed by a dissecting microscope. The fraction of dead worms was determined by scoring the number of dead worms and the total number of worms in each well. At least 30 nematodes were used for each well, and each assay was performed at least in duplicate on a single day (n ≥ 60). Survival assays were then repeated at least once on different days to verify patterns. Compound effect on worm survival rarely varied between replicates, but the overall worm susceptibility varied among assays. Kaplan-Meier survival curves were calculated using GraphPad Prism (v. 7.0) software.

[4] = Table S3, Ec-reporter, screening conc. 100 μM
[5] = Ec-reporter, activity for 100 μM C8-AHL set to 100%, error ±10%

SMILES	IC50 [1]	Maximal Inhibition (%) [1]	Effect on survival of Bm-infected worms (antagonists) [3]	inhibition at 100 µM [1, 4]	EC50 ([2]; Ec-reporter)	Emax [2, 5]	activation at 100 µM [2]	Effect on survival of Bm-infected worms (agonists) [3]	further results
O=C(Cc1cccc(Br)c1)N[C@H]1CCOC1=O [Compound C8]	2700 nM	79%	prolonged nematode survival	–	–	–	–	–	Act% [2]: 12%
CCCCCCCC(=O)N[C@H]1CCOC1=O [Compound C8-AHL, N-octanoyl L-homoserine lactone, reference compound]	–	–	–	-30%	5 nM and 5.7 nM	100%	100%	significantly increased worm death	EC50 fold higher in the Ec-reporter than in the Bm-reporter ([2]; Ec- vs Bm-reporter): ~ 10 fold
O=C(CC1CCCC1)N[C@H]1CCOC1=O [Compound B12]	3700 nM	69%	prolonged nematode survival	–	–	–	39%	–	–
CCCCCC(O)CC(=O)N[C@H]1CCOC1=O (stereo partly shown) [3’OH-C8-AHL, reference compound]	–	–	–	–	210 nM	–	–	did not appear to affect worm survival	Inh% (100-Act%) [1, 4]: -20%; Maximal Activation (%) [2, 5]: 84%; Act% [2]: 84%
O=C(Cc1cccc(C(F)(F)F)c1)N[C@H]1CCOC1=O [Compound E3]	3300 nM	77%	prolonged nematode survival	–	–	–	6.6%	–	–
O=C(CCc1ccc(I)cc1)N[C@H]1CCOC1=O [Compound E32]	–	–	–	-20%	1.1 nM	97%	97%	–	–
CCCCCCCS(=O)(=O)N[C@H]1CCOC1=O [Compound A12]	380 nM	68%	–	–	–	46%	46%	–	CepR agonism in words ([2]; Ec-reporter): failed to activate CepR
O=C(CCc1ccc(C(F)(F)F)cc1)N[C@H]1CCOC1=O [Compound E35]	–	–	–	-50%	0.18 nM	100%	100%	–	EC50 (nM) ([2]; Ec-reporter): sub-nanomolar
O=C(CCc1ccc([N+](=O)[O-])cc1)N[C@H]1CCOC1=O [Compound E37]	–	–	–	-30%	0.19 nM	95%	95%	promoted worm killing	EC50 (nM) ([2]; Ec-reporter): sub-nanomolar
